Laboratory results from paper PMC11472388 (ACS Medicinal Chemistry Letters, 2024).
Several values for one entry are separate records, joined by “and”; a condition that tells them apart may be missing. Equal entries are not always repeated. Where two headings read alike, the source gives them in different places. Where a SMILES comes first, the peptide text is derived from it. Bridges are numbered along the chain shown (N, C = ends). [ ]: non-standard residue; d: D form. The star is where a group is joined. βGlc = OC[C@H]1O[C@@H](*)[C@H](O)[C@@H](O)[C@@H]1O; 1Nal = N[C@@H](Cc1cccc2ccccc12)C(=O)O

Tests used:
[1] = In vivo microdialysis and plasma pharmacokinetics (BBB penetration); set-up: species or system Sprague-Dawley rats; conditions: rat, 10 mg/kg i.v.; for AUC Brain (estimated CSF, brain dialysate): striatal dialysate 0-60 min
Method: Following intravenous bolus injection, AUC, Cmax, half-life, and Tmax were determined in plasma and CSF dialysate, and the CSF/plasma ratios for AUC of the analogs were compared (Table 1).
Blood Brain Barrier Penetration and Pharmacokinetics
Animals: Male, Sprague-Dawley rats (225-325, n = 3/group; Envigo RMC Inc., Indianapolis, IN were used for in vivo microdialysis and pharmacokinetic experiments. Rats were co-housed in a temperature/humidity-controlled room on a 12-h reversed light/dark cycle. Food and water were available ad libitum. Animal studies were approved by The University of Arizona Institutional Animal Care and Use Committee, in accordance with NIH’s Care and Use of Laboratory Animals […]
Carotid Artery Catheterization and Microdialysis Surgery: Both procedures were performed in the same anesthetic event in accordance with our previous studies, with one exception, the left carotid artery was catheterized in each animal.2
In Vivo Microdialysis and Plasma Sampling: Blood-brain-barrier penetration and […]
same time to minimize injection site variations and individual differences between the animals. […]
following changes (Figure S3). 2, 4 The microdialysis probe (FZ-8-04; Amuza, San Diego, CA) was inserted into the striatum and perfused with aCSF (15 mM Tris HCl, 10 mM Tris base, 126 mM NaCl, 2.5 KCl, 1.2 mM NaH 2PO4, 2mM Na 2SO4, and adjusted pH to 7.4) at a rate of 0.5 µL/minute using one channel of a dual syringe pump (Fusion 101A Syringe Pump; Chemyx, Stafford, TX).
Boise, ID) and injected via the lateral tail vein. Brain dialysate samples used to estimate CSF were collected over 10 minutes, where t = 0 corresponds to the injection: t = -10, 0, 10, 20, 30, 40, 50, and 60 minutes. Blood was sampled to correspond with the median timepoint of the dialysate fraction, where t = 0 corresponds to the injection: t = -5, 0, 1, 5, 15, 25, 35, 45, and 55 […]
minutes. To separate plasma from whole blood, each sample was collected in ethylenediamine tetraacetic acid capillary tubes (CT-CB300-K2EDTA; Sarstedt, Nümbrecht, Germany), inverted repeatedly for 30 seconds, and centrifuged for 10 minutes at 2,000 x g in a refrigerated centrifuge (Galaxy Mini Centrifuge; VWR, Radnor, PA).
Brain dialysate (5 μL) and plasma (5 μL) were mixed with 5 μL and 50 μL of preservation solution […]
Enkephalin), respectively, and then vortexed for 10 seconds. 90 μL of cold acetone and deionized water (75:25, v/v) was added to precipitate dialysate and plasma proteins. After vortexing for 30 seconds, samples were centrifuged at 13,000 rpm for 15 minutes at 4 °C. The supernatant was evaporated using a Savant Speedvac concentrator. Dialysate and plasma samples were reconstituted in a 20 μL and 200 μL diluent (2% acetonitrile and 0.1% formic acid in deionized water), respectively. Samples were injected into the ThermoFisher UHPLC-MS/MS TSQ system.
Chromatographic separation was achieved on an ACQUITY UPLC HSS T3 C18 Column (100 Å, 1.8 µm, 2.1 X 100 mm) and VanGuard pre-column (HSS T3 1.8 μm, 2.1 X 5 mm) with the temperature set at 20 ℃. A water-acetonitrile gradient with a 0.3 mL/minute flow rate was used.
The mobile phases used were A: 0.1% v/v formic acid in deionized water and B: 0.1% v/v formic acid in acetonitrile. An injection volume of 8 µL was used. Detection was achieved using a Thermo Fisher TSQ Fortis Plus mass spectrometry instrument with an H-ESI ion source. The instrument was operated in a positive ion mode. The MRM mode was used for quantification using target […]
protonated ZH853 (MW 809.92 gmol-1). Concentrations were calculated using the response factor-concentration plot. Pharmacokinetic parameters, including the area under the curve (AUC), maximum plasma concentration (Cmax), the time to reach Cmax (Tmax), and half-life (t1/2), were […]
(§1) using the microdialysis probe recovery rate. All data are presented as mean ± SEM.

[2] = molecular target: T1, mu opioid receptor (MOR) (Homo sapiens, UniProt P35372); assay: Opioid receptor binding (NIMH PDSP), MOR
T1 construct: NIMH Psychoactive Drug Screening Program (PDSP)
From the text: (§2) Ki determinations at the 3 canonical opioid receptors, MOR, DOR. and KOR. were generously performed by the NIMH Psychoactive Drug Screening Program (PDSP), directed by Bryan L. Roth at the University of North Carolina at Chapel Hill and Project Officer Jamie Driscoll at NIMH, Bethesda. MD.

[3] = molecular target: T2, kappa opioid receptor (KOR) (Homo sapiens, UniProt P41145); assay: Opioid receptor binding (NIMH PDSP), KOR
T2 construct: NIMH Psychoactive Drug Screening Program (PDSP)
From the text: as §2

[4] = molecular target: T3, delta opioid receptor (DOR) (Homo sapiens, UniProt P41143); assay: Opioid receptor binding (NIMH PDSP), DOR
T3 construct: NIMH Psychoactive Drug Screening Program (PDSP)
From the text: as §2

[5] = molecular target: T4, MOR (Homo sapiens, UniProt P35372); assay: Gi signaling (inhibition of cAMP) in opioid-receptor-expressing HEK cells, MOR; type: cell-based
T4 construct: host or cells: HEK cells expressing the receptor (from the earlier reading's assay name)
Method: (§3) Opioid-receptor-specific functional activity was assessed in cyclicAMP (cAMP) assays by PDSP.

[6] = molecular target: T5, DOR (Homo sapiens, UniProt P41143); assay: Gi signaling (inhibition of cAMP) in opioid-receptor-expressing HEK cells, DOR; type: cell-based
T5 construct: host or cells: HEK cells expressing the receptor (from the earlier reading's assay name)
Method: as §3

[7] = molecular target: KOR (Homo sapiens, UniProt P41145); assay: cell-based; conditions: HEK cells; means and SEMs of 3–6 assays; read-out: IC50 KOR (κ), cAMP
[8] = system: male and female CD-1 mice; assay: Tail flick (TF) antinociception; type: in vivo; conditions: for ED50: Mus musculus, sc
From the text: as §1
For the dialysate, the mean
Animals: Male and female CD-1 and DBA mice, 21–29 g at testing, were obtained from Charles River (Wilmington, MA) and housed in a 12-h light/dark cycle. All experiments were approved by the Tulane Institutional Animal Care and Use Committee and conducted according to the NIH Guide for the Care and Use of Laboratory Animals. All efforts were made to minimize animal suffering and to reduce the number of animals used.
Tail Flick (TF): CD1 mice were used for this test. The latency to withdraw the tail from a heat source was automatically measured (IITC, Woodland Hills, CA). […]
with a cutoff time of 9 s to prevent tissue damage. Percent Maximum Possible Effect (%MPE) was determined as [(latency-baseline latency)/(9-baseline latency)]*100. […]
(§4) calculated and used as the peak response for determining ED50’s. Initial tests, based on previous studies with ZH853, were 3h in duration.
(§5) Additional subgroups (n = 4-5) were therefore tested for 5h. […] For the time course (Figure 3) […]
(§6) animals were used. Duration of antinociception was assessed using both the area under the curve (AUC) and duration of antinociception, calculated as the time from the first to the last time point greater than or equal to 50% MPE.
(§7) Hot Plate (HP) Test: This test reflects a supraspinally organized complex response, 6 and was used to assess the CNS activation of antinociception by peripherally (s.c.) administered […]
(§8) to reduce test compound requirements. The HP apparatus (IITC, Woodland Hills, CA) was set to 55.5°C, a temperature that elicited a response after 7-9 sec. Three baseline HP latencies to rapidly lift, lick, or shake the hind paws were taken prior to drug injection. Mice were removed from the HP after a maximum of 30 sec. Mice were injected with several analogs (0–5.6 mg/kg s.c.) and tested from 30–300 min after injection.
(%MPE) as described for TF.

[9] = system: male and female DBA mice; assay: animal or person; type: in vivo; conditions: for ED50: Mus musculus, sc
Method: as §4, §5, §6, §7, §8
(%MPE) as described for TF. […]
each of those respective times was therefore calculated and used as the peak response for determining ED50’s. These values were used to calculate area under the curve (AUC). The duration of antinociception greater than 50% MPE was calculated as with TF.
Figure S3. Microdialysis and Pharmacokinetics Experiment Scheme.
Scheme depicts catheterization and microdialysis of the rat striatum. […]
endomorphin-1 analog (10 mg/kg; i.v.) ZH853 = ZH853•HCl (10 mg/kg; i.v.); aCSF = artificial cerebrospinal fluid. Created with BioRender.com (Agreement number MH26RXD2YP).
(1 picture or pasted object on this page, not shown here)

[10] = male, Sprague-Dawley, iv, brain dialysate, read-out: Tmax Brain (dialysate) (converted)
[11] = male, Sprague-Dawley, iv, plasma, read-out: Tmax Plasma (converted)
[12] = male, Sprague-Dawley, brain dialysate, iv, 10 mg/kg, brain dialysate, read-out: Half-life Brain (dialysate)
[13] = male, Sprague-Dawley, plasma, iv, 10 mg/kg
[14] = male, Sprague-Dawley, plasma, iv, 10 mg/kg, plasma 0-55 min, n=3
[15] = male, Sprague-Dawley, plasma, iv, 10 mg/kg, plasma, read-out: Half-life Plasma
[16] = tail flick, 10 mg/kg morphine, 1.8 mg/kg A2

T1 sequence (P35372 whole entry): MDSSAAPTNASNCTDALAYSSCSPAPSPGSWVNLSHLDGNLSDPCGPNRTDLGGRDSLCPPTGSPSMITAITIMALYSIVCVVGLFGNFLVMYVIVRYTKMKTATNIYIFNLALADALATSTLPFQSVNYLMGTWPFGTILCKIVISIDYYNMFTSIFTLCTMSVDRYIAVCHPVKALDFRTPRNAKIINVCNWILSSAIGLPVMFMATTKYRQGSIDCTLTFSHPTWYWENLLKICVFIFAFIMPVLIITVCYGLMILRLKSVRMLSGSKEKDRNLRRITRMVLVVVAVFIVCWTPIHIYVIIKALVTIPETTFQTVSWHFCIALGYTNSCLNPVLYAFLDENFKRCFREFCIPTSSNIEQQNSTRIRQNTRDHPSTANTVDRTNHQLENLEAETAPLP
T4 sequence (P35372 whole entry): as above
T2 sequence (P41145 whole entry): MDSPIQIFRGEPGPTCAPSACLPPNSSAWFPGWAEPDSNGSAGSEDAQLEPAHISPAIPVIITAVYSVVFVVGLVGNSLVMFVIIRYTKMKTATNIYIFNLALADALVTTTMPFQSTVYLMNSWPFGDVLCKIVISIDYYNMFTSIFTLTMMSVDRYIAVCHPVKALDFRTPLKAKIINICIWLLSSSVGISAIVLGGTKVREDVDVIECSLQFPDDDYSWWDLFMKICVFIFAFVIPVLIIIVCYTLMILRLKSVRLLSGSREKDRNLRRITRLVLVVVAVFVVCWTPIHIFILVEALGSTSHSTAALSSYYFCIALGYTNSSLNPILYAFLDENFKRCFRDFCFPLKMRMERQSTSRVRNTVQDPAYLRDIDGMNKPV
KOR, sequence (P41145 whole entry): as above
T5 sequence (P41143 whole entry): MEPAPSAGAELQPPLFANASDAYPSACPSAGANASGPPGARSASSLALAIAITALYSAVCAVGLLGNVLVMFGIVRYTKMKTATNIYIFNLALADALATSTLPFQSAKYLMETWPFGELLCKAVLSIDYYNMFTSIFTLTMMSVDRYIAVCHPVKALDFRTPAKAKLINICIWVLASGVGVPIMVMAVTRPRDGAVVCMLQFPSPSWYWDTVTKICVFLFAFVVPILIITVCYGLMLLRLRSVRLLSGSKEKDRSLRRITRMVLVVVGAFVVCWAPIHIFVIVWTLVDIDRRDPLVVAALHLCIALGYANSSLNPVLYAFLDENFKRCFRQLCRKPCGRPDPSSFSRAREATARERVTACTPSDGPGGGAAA
T3 sequence (P41143 whole entry): as above

## NC(=O)[C@H](CO[C@@H]1O[C@H](CO)[C@@H](O)[C@H](O)[C@H]1O)NC(=O)[C@@H]1CCC(=O)NCCCC[C@@H](NC(=O)[C@@H](N)Cc2ccc(O)cc2)C(=O)N[C@@H](Cc2c[nH]c3ccccc23)C(=O)N[C@@H](Cc2ccccc2)C(=O)N1 [Analog A1]
[1]; [10]
  Tmax: 5 min
[1]; [11]
  Tmax: 1 min
[1]; [12]
  half-life: 16.6 ± 7.9 min
[1]; [13]
  Cmax: 15.7 ± 7.4 µM
[1]; [14]
  AUC: 2.62 µM·h
[1]; [15]
  half-life: 25.9 ± 5.7 min
[1]; 0-55 min
  AUC of plasma, increase over ZH853: ~ 1.5 fold
[1]; 0-60 min
  AUC of estimated CSF, increase over ZH853: ~ 8 fold
[1]; brain dialysate, 10 mg/kg
  Cmax Brain (dialysate): 10.8 ± 6.5 µM and 11 ± 7 µM
[1]; n=3, 10 mg/kg
  AUC Brain (estimated CSF, brain dialysate): 141.0 ± 69.2 µM·min and 141 ± 69 µM·min

## NC(=O)[C@H](CO[C@@H]1O[C@H](CO)[C@@H](O)[C@H](O)[C@H]1O)NC(=O)[C@@H]1CCC(=O)NCCCC[C@@H](NC(=O)[C@@H](N)Cc2ccc(O)cc2)C(=O)N[C@@H](Cc2cccc3ccccc23)C(=O)N[C@@H](Cc2ccccc2)C(=O)N1 [Analog A6] (H-Y[dK][1Nal]FES(βGlc)-NH2; lactam 2-5; N-terminus assumed)
[2]; relative to unglycosylated peptides
  Shift (reduction) of MOR affinity by glycosylation: ~5 fold

## NC(=O)[C@H](CO)NC(=O)[C@@H]1CCC(=O)NCCCC[C@@H](NC(=O)[C@@H](N)Cc2ccc(O)cc2)C(=O)N[C@@H](Cc2c[nH]c3ccccc23)C(=O)N[C@@H](Cc2ccccc2)C(=O)N1 [Analog A8]
[3]
  Ki: 1260 ± 145 nM

## NC(=O)CNC(=O)[C@@H]1CCC(=O)NCCCC[C@@H](NC(=O)[C@@H](N)Cc2ccc(O)cc2)C(=O)N[C@@H](Cc2c[nH]c3ccccc23)C(=O)N[C@@H](Cc2ccccc2)C(=O)N1 [ZH853]
[1]; [10]
  Tmax: 28 min
[1]; [11]
  Tmax: 2 min
[1]; [12]
  half-life: 6.1 ± 0.7 min
[1]; [13]
  Cmax: 16.5 ± 3 µM
[1]; [14]
  AUC: 1.83 µM·h
[1]; [15]
  half-life: 15.9 ± 2.3 min
[1]
  AUC CSF/Plasma ratio: 0.189
[1]; brain dialysate, 10 mg/kg
  Cmax Brain (dialysate): 1.5 ± 0.2 µM and 2 ± 0.2 µM
  Half-life Brain (dialysate): 6 ± 0.7 min
[1]; plasma 0-55 min, n=3, 10 mg/kg
  AUC Plasma: 110 ± 37 µM·min
[1]; plasma, 10 mg/kg
  Cmax: 17 ± 3 µM
  Half-life Plasma: 16 ± 2 min
[1]; n=3, 10 mg/kg
  AUC Brain (estimated CSF, brain dialysate): 20.7 ± 7.9 µM·min and 21 ± 8 µM·min
[2]
  Ki: 0.61 ± 0.2 nM
[2]; mean ± SEM of 3 replicate assays
  Ki MOR (μ): subnanomolar
[2]; ratio of Ki
  Selectivity δ/μ (binding): 631
  Selectivity κ/μ (binding): 2353
[4]
  Ki: 385 ± 61 nM
[3]
  Ki: 1440 ± 306 nM
[5]
  IC50: 0.07 ± 0.04 nM
[5]; ratio of IC50
  Selectivity δ/μ (cAMP): 5220
  Selectivity κ/μ (cAMP): 31460
[6]
  IC50: 377 ± 166 nM
[7]
  IC50: 2270 ± 273 nM

## CN1CC[C@]23c4c5ccc(O)c4O[C@H]2[C@@H](O)C=C[C@H]3[C@H]1C5 [morphine]
[8]; female CD-1 mice, %MPE at peak response, read-out: Tail flick ED50 Female
  ED50: 1.57 ± 0.35 mg/kg
[8]; female CD-1 mice, read-out: Tail flick ED50 Female
  ED50: 4.69 ± 1.08 µmol/kg
[8]; male CD-1 mice, read-out: Tail flick ED50 Male
  ED50: 3.74 ± 0.39 µmol/kg
[8]; tail flick
  Time of peak response: 20 to 30 min
[8]; tail flick, 5.6 mg/kg
  Duration of antinociception: ~2 h
[8]; [16]
  Antinociception at matched doses: 100 %MPE
  Duration of antinociception at matched doses: > 3 h
[9]; female DBA mice, %MPE at peak response, read-out: Hot plate ED50 Female
  ED50: 2.33 ± 0.18 mg/kg
[9]; female DBA mice, read-out: Hot plate ED50 Female
  ED50: 6.99 ± 0.52 µmol/kg
[9]; male DBA mice, %MPE at peak response, read-out: Hot plate ED50 Male
  ED50: 2.82 ± 0.24 mg/kg
[9]; male DBA mice, read-out: Hot plate ED50 Male
  ED50: 8.43 ± 0.73 µmol/kg
[9]; hot plate
  Time of peak response: 30 to 45 min
